According to patent US4123546A, “Antidepressant compounds” (E. I. Du Pont de Nemours and Company, priority 1977, dated 1978):
Structures can show the parent of a compound that is named as a salt. Where two headings read alike, the source gives them in different places.

Columns and labels:
[1] = tested on: tetrabenazine-induced depression; assay: prevention of tetrabenazine-induced sedation and depression in mice (exploratory activity and ptosis); type: in vivo, Carworth CF1 S female mice; conditions: for ED50: Mus musculus, po; for ED50 Ptosis / ED50 Exploratory: 60 min
Text: A standard procedure for detecting and comparing the antidepressant activity of compounds in this series for which there is good correlation with human efficacy is the prevention of tetrabenazine-induced sedation and depression in mice. (Everett, "The Dopa Response Potentiation Test and Its Use in Screening for Antidepressant Drugs", pp. 164-167 in "Antidepressant Drugs" [Proceedings of the First International Symposium], S. Garattini and M. N. G. Dukes, eds., 1967.).
Groups of 10 Carworth CF1 S female mice, 18-21 g. each, were fasted 1.5 hours and were intubated with antagonist compounds at oral doses of 0, 5, 25, and 125 mg/kg or 0, 1, 3, 9, 27, and 81 mg/kg in 0.20 ml. of 1% Methocel (methylcellulose) 1.25% Tween 80. The mice were challenged 30 minutes later with tetrabenazine (as the methane-sulfonate), 32 mg/kg intraperitoneally (dissolved in 0.20 ml. 0.05M KCl at pH 2.0). One hour after antagonist (30 minutes after tetrabenazine), the mice were examined for signs of exploratory activity and ptosis (eyelid closure). Normal exploratory activity (relief from sedation) was recorded when a mouse lifted by the tail from a group of 10 in a testing box and placed on a stainless steel testing box lid (12.5" × 8" with 0.33" mesh) either turned its head horizontally 30° in both direction or moved to the edge of the screen within 10 seconds after being placed on the screen. Relief from ptosis was recorded when exactly 2 seconds after placing the mouse facing the observer, lid closure was less than 50% in both eyes.
For comparison, the marketed antidepressant Amitriptyline was also tested, and an ED50 (effective dose in 50% of the cases) was determined. The lower the ED50, the better the antidepressant.

monoamine oxidase (MAO) = assay: tryptamine potentiation in mice (monoamine oxidase inhibition); type: in vivo
Text: (§1) An antidepressant which acts by inhibiting MAO is not acceptable.

[2] = tested on: hexabarbitol potentiation; assay: hexabarbitol potentiation in mice (sedative qualities); type: in vivo
Text: as §1

[3] = Table I, orally, 1 hour post-drug, tetrabenazine 32 mg/kg i.p. 30 min after drug, relief from ptosis
[4] = Table I, orally, 1 hour post-drug, tetrabenazine 32 mg/kg i.p. 30 min after drug, relief from sedation (exploratory activity)
[5] = Table II (formula II compounds), orally, 1 hour post-drug, relief from ptosis, read-out: ED50 Ptosis
[6] = Table II (formula II compounds), orally, 1 hour post-drug, relief from sedation (exploratory activity), read-out: ED50 Exploratory

SMILES | ED50 Ptosis [1, 3] | ED50 Exploratory [1, 4] | ED50 [1, 5] | ED50 [1, 6] | also measured
CN(C)CCC=C1c2ccccc2CCc2ccccc21 [Amitriptylene . HCl, reference compound] |  |  |  |  | ED50 ([1]; Table I, orally, 1 hour post-drug, tetrabenazine 32 mg/kg i.p. 30 min after drug, relief from ptosis, read-out: ED50 Ptosis): 1.5 mg/kg; ED50 ([1]; Table I, orally, 1 hour post-drug, tetrabenazine 32 mg/kg i.p. 30 min after drug, relief from sedation (exploratory activity), read-out: ED50 Exploratory): 3.7 mg/kg
CN(C)CCCOC12c3ccccc3C3C(c4ccccc41)N32 (stereo not drawn) [CH2 CH2 CH2 N(CH3)2, 3-[(4b, 4c-Dihydro-8bH-azirino[2,1,3-cd]dibenzo[a,f]-pyrrolizin-8b-yl)oxy]propyl-N,N-dimethylamine] |  |  |  |  | ED50 ([1]; 1 h, read-out: ED50 Exploratory, Table I, orally, 1 hour post-drug, tetrabenazine 32 mg/kg i.p. 30 min after drug, relief from sedation (exploratory activity)): 67 mg/kg; ED50 ([1]; 1 h, read-out: ED50 Ptosis, Table I, orally, 1 hour post-drug, tetrabenazine 32 mg/kg i.p. 30 min after drug, relief from ptosis): 56 mg/kg
CN(C)CCOC12c3ccccc3C3C(c4ccccc41)N32 (stereo not drawn) [CH2 CH2 N(CH3)2 . Maleate, 2-[4b, 4c-Dihydro-8bH-azirino[2,1,3-cd]dibenzo[a,f]pyrrolizin-8b-yl)oxy]ethyl-N,N-dimethylamine Maleate] | 8 mg/kg | 9 mg/kg |  |  | 
CN(C)CCOC12NC(c3ccccc31)C(Cl)c1ccccc12 (stereo not drawn) [CH2 CH2 N(CH3)2 H Cl, 10,11-Dihydro-5,10-imino-5-[2-(N,N-dimethylamino)-ethoxy]-11-chloro-5H-dibenzo[a,d]cycloheptene] |  |  | 15 mg/kg | 25 mg/kg | 
CN(C)CCOC12NC(Cc3ccccc31)c1ccccc12 (stereo not drawn) [CH2 CH2 N(CH3)2 H H, 10,11-Dihydro-5,10-imino-5-[2-(N,N-dimethylamino)-ethoxy]-5H-dibenzo[a,d]cycloheptene] |  |  | 15 mg/kg | 15 mg/kg | 
CN(C)CCOC12c3ccccc3C3C(c4ccccc41)N32 (stereo not drawn) [CH2 CH2 N(CH3)2, 2-[(4b, 4c-Dihydro-8bH-azirino[2,1,3-cd]dibenzo[a,f]pyrrolizin-8b-yl)oxy]ethyl-N,N-dimethylamine] | 2 mg/kg | 2 mg/kg |  |  | monoamine oxidase (MAO) inhibition (monoamine oxidase (MAO); implied by lack of tryptamine potentiation in mice): not a monoamine oxidase (MAO) inhibitor; potentiation of tryptamine (monoamine oxidase (MAO); in mice): not to potentiate tryptamine in mice; sedative qualities ([2]; implied by hexabarbitol potentiation in mice, at high doses): sedative qualities at high doses; potentiation of hexabarbitol ([2]; in mice): potentiates hexabarbitol in mice
NCCOC12c3ccccc3C3C(c4ccccc41)N32 (stereo not drawn) [CH2 CH2 NH2 . Maleate] | 10.3 mg/kg | 11.8 mg/kg |  |  | 
NCCOC12c3ccccc3C3C(c4ccccc41)N32 (stereo not drawn) [CH2 CH2 NH2 . Tartate] | 2.7 mg/kg | 3.3 mg/kg |  |  | 
NCCOC12NC(c3ccccc31)C(Cl)c1ccccc12 (stereo not drawn) [CH2 CH2 NH2 H Cl, 10,11-Dihydro-5,10-imino-5-(2-aminoethoxy)-11-chloro-5H-dibenzo[a,d]cycloheptene] |  |  | 37 mg/kg | 37 mg/kg | 
NCCOC12c3ccccc3C3C(c4ccccc41)N32 (stereo not drawn) [CH2 CH2 NH2] | 1 mg/kg | 2 mg/kg |  |  | 
